What was measured:
[1] = system: human bone marrow CD34+ cells or cord blood CD34+ cells; assay: 14-day culture in PI3Ka and TPOago medium with SR-1 and/or UM171; type: cell-based
Method: (§1) Prepared was the above culture medium for human hematopoietic stem cells, which medium contained 20 μM PI3Ka and 0.1 μM TPOago instead of SCF and TPO (PI3Ka20μM+TPOago0.1 μM), or which medium contained SR-1 (500 nM) and/or UM171 (35 nM) (+SR-1, +UM171, or +SR-1+UM171). […] The total cell count and the CD34^+ cell count were determined as above on day 14 after the start of culture, and the growth rate relative to that at the start of culture was determined.
as §1, with “(PI3Ka20μM+TPO0.1μM),” for “(PI3Ka20μM+TPOago0.1 μM),”, “(500nM)” for “(500 nM)”

[2] = system: human bone marrow CD34+ cells or cord blood CD34+ cells; conditions: absence of albumin, presence of PVA; TPO replaced by agonist
Method: In addition, purchased human bone marrow CD34^+ cells (provider name: Lonza, product No. 2C-101) or CD34^+ cells isolated using microbeads from given fresh cord blood were used for culture experiments. the experiments were performed in 24-well plates at 0.2 to 1.0×10^5 cells per well, with TPO removed from the culture medium for human hematopoietic stem cells and replaced by one of the above TPO receptor agonists (hereinafter, sometimes referred to as “TPOago”). The cell count on the seventh day of culture relative to the cell count on the first day of culture was determined.
In addition, purchased human bone marrow CD34^+ cells (provider name: Lonza, product No. 2C-101) or CD34^+ cells isolated using microbeads from given fresh cord blood were used for culture experiments. Experiments were performed in 24-well plates with 0.2 to 1.0×10^5 cells per well, with TPO removed from the culture medium for human hematopoietic stem cells and replaced by one of the above TPO receptor agonists (hereinafter, sometimes referred to as “TPOago”). The cell count on the seventh day of culture relative to the cell count on the first day of culture was determined.

[3] = system: human hematopoietic stem cells; assay: Culture of human hematopoietic stem cells with AKTa or PI3Ka; type: cell-based; conditions: 0.3 μM AKTa or 20 μM PI3Ka; PVA, no albumin, SCF 10 ng/mL, TPO 100 ng/mL
Method: Then, human hematopoietic stem cells were cultured in a culture medium supplemented with 0.3 μM AKTa (Sigma-Aldrich, product No. 123871) or 20 μM PI3Ka. Cells were counted after 3, 5, and 7 days of incubation, and the relative cell count at each time point was calculated while the cell count on the first day of incubation was set to 1. In the following Examples, 740Y-P (Provider name: Tocris, product No. 1983) was used as PI3Ka.

[4] = system: human hematopoietic stem cells; assay: Replacement of SCF by PI3Ka, 7-day culture; type: cell-based; conditions: day 7; 20 μM PI3Ka, TPO 100 ng/mL, PVA, no albumin
Method: Next, human hematopoietic stem cells were cultured to examine whether PI3Ka could completely replace SCF. Human hematopoietic stem cells were cultured for 7 days in the above culture medium for human hematopoietic stem cells with 20 μM PI3Ka (S10+PI3Ka20+T100) or in the above culture medium with 20 μM PI3Ka but without SCF (PI3Ka20+T100). The total number of cells and the number of isolated CD34^+ cells as obtained by cell sorting using an anti-CD34 antibody were then determined.

[5] = system: human hematopoietic stem cells; assay: Culture with PI3Ka and/or TPOago in medium without SCF or TPO; type: cell-based; conditions: day 7; 20 μM PI3Ka and/or 0.1 μM TPOago; no SCF, no TPO; PVA
Method: Next, human hematopoietic stem cells were cultured in a medium containing 20 μM PI3Ka and/or 0.1 μM TPOago with reference to a culture medium without SCF or TPO. On day 7 of culture, the number of total cells and the number of CD34^+ cells included were counted by flow cytometry, and the growth rate relative to that at the start of culture was determined.

[6] = system: Bone marrow cell samples from CML (chronic myelogenous leukemia) patients; assay: Culture of chronic myelogenous leukemia (CML) cells with or without imatinib; type: cell-based, human; conditions: one week; 0.1% PVA, 20 μM PI3Ka, 0.1 μM TPOago
Method: Bone marrow cell samples from CML (chronic myelogenous leukemia) patients were each cultured for one week under albumin-free and cytokine-free culture conditions. The culture medium used was a basal medium containing 0.1% PVA, 20 μM PI3Ka, and 0.1 μM TPOago. The culturing was performed in the presence or absence of an inhibitor (imatinib (IM)) of Bcr-Abl, the gene responsible for CML.

[7] = system: CD34+ cells; assay: 14-day culture of CD34+ cells under conditions 1 to 3; type: cell-based, human
Method: Further, the growth rate of the total cell count or the CD34^+ cell count was determined by culturing the CD34^+ cells under three conditions: condition 1: cultured for 14 days in the culture medium for human hematopoietic stem cells above, which medium contained 20 μM PI3Ka and 0.1 μM TPOago instead of SCF and TPO (PI3Ka20μM+TPOago0.1μM), condition 2: at day 7 or later, cultured in a medium without butyzamide (Day7—no Buty), and condition 3: cultured for 14 days in a medium (PI3Ka20μM+TPOago0.1μM) further containing UM171 (+UM171). The CD41^+ cell count was determined using a flow cytometer.

[8] = system: Mp132D cells; assay: Replacement of TPO by TPO receptor agonists, Mp132D cells; type: cell-based, human; conditions: 0.1 μM butyzamide, 3 μg/mL eltrombopag, 3 μM avatrombopag; for proliferation in the absence of TPO: in the presence of 0.1% recombinant human serum albumin; for cell proliferative effect in the absence of TPO: in the presence of PVA, absence of albumin
Method: (§2) Next, human hematopoietic stem cells were cultured to examine whether TPO could be replaced by a TPO receptor agonist. Examples of the known TPO receptor agonist include butyzamide, eltrombopag, or avatrombopag. Human hematopoietic stem cells were cultured in a medium containing 0.1 μM butyzamide, 3 μg/mL eltrombopag, or 3 μM avatrombopag in the presence of 0.1% recombinant human serum albumin (Albumin Biosciences) or in the presence of PVA in the above culture medium without TPO. In this experiment, Mp132D cells were used as human hematopoietic stem cells.
as §2, with “TPO receptor agonists include butyzamide,” for “TPO receptor agonist include butyzamide,”

[9] = system: human bone marrow CD34+ cells or cord blood CD34+ cells; assay: Culture with PI3Ka and TPO or butyzamide, growth rate at day 7; type: cell-based; conditions: 20 μM PI3Ka, 0.1 μM butyzamide vs TPO 100 ng/mL, PVA, no albumin
Method: (§3) In the following Examples, butyzamide was used as a TPO receptor agonist. […] After 7 days, the total number of cells was determined and the number of CD34^+ cells was determined by flow cytometry. Thereafter, the growth rate compared to that at the beginning of the incubation was determined. […] In addition, CD34^+ cells were sorted before and after incubation by using a cell sorter, and 100 cells were seeded into Methocult H4415 for colony assay. After two weeks, each colony was picked under a microscope, a cytospin sample was prepared, and the sample was subjected to Giemsa staining. The type of the colony was then identified under a microscope. GEmM colonies per 50 CD34^+ cells were counted and a rate of increase in the number of colonies compared to before the culture was determined.

[10] = system: CD34+ cells; assay: GEmM colony assay (Methocult H4415) after culture with PI3Ka and TPO or butyzamide; type: cell-based, human; conditions: GEmM colonies per 50 CD34+ cells; after 7-day culture; 0.1 μM butyzamide vs TPO
Method: as §3

[11] = day 14, condition 2 compared to condition 1, condition 3 (+UM171) compared to condition 1 or 2

`CC(C)n1cnc2c(NCCc3ccc(O)cc3)nc(-c3csc4ccccc34)nc21` [SR-1] was tested, and the cell death ([1]; SR-1 500 nM in PI3Ka20μM+TPOago0.1μM medium, PVA, no albumin) was “caused cell death”.
`CC1=NN(c2ccc(C)c(C)c2)C(=O)/C1=N\Nc1cccc(-c2cccc(C(=O)O)c2)c1O` [eltrombopag] was tested, and the “cell death (cytotoxicity) in hematopoietic stem cells” value [2] was “caused cell death”.
In the case of “RQIKIWFQNRRMKWKKSDGGYMDMS [PI3Ka, Tocris, product No. 1983]”, the “relative cell count (proliferation) after 3, 5 and 7 days” value [3] is reported as “marked proliferation”, the “difference in number of total cells or CD34+ cells with or without SCF” value [4] is reported as “no significant difference” and the “growth rate (total cells and CD34+ cells) relative to start of culture” value [5] is reported as “no increase in the cell count”.
For `Cc1ccc(NC(=O)c2ccc(CN3CCN(C)CC3)cc2)cc1Nc1nccc(-c2cccnc2)n1` [IM, imatinib], the “cell expansion in the presence of IM” value [6] was “no significant cell expansion”.
With “SCF: stem cell factor, hematopoietic cell growth factor” the “difference in number of total cells or CD34+ cells with or without SCF” value [4] was “no statistically significant difference”.
With `Cn1nnc(-c2ccc3c(c2)[nH]c2nc(Cc4ccccc4)nc(NC4CCC(N)CC4)c23)n1` (stereo not drawn) [UM171, 4-N-[2-benzyl-7-(2-methyltetrazol-5-yl)-9H-pyrimid[4,5-b]indol-4-yl]cyclohexane-1,4-diamine] the “growth rate of CD34+ cells, medium containing UM171 vs medium without” value ([1]; day 14, UM171 35 nM) was “significantly larger”, the “total cell count and CD34+ cell count” value ([1]; day 14, UM171 35 nM added to PI3Ka20μM+TPOago0.1μM medium) was “increased” and the “CD34+ cell count / growth rate of CD34+ cells” value [7, 11] was “markedly increased”. For the same molecule, the “CD41+ cell count” value [7, 11] was “markedly decreased” and the “differentiation into megakaryocyte progenitors and megakaryocytes” value ([7]; serum-free medium with PVA, PI3Ka and TPOago) was “inhibited”.
With `CCOC(=O)C1=C(N)Oc2ccc(Cl)cc2C1C(C#N)C(=O)OCC` (stereo not drawn) [AKTa] the “relative cell count (proliferation) after 3, 5 and 7 days” value [3] was “no proliferative effect”.
For `CCCOC(c1cccc(-c2csc(NC(=O)c3cc(Cl)c(C=C(C)C(=O)O)c(Cl)c3)n2)c1OC)C(C)(C)C` (stereo not drawn) [butyzamide, 3-[4-[[[4-[2-methoxy-3-(1-tert-butyl-2-oxapentan-1-yl)phenyl]thiazol-2-yl]amino]carbonyl]-2,6-dichlorophenyl]-2-methylpropenoic acid], the “proliferation in the absence of TPO” value [8] was “able to support proliferation”, the “cell proliferative effect in the absence of TPO” value [8] was “marked cell proliferative effect” and the “cell count on the seventh day relative to the first day (proliferation)” value [2] was “significant cell proliferation”. For the same molecule, the “growth rate of total cells and CD34+ cells, replacement of TPO” value [9] was “can completely replace TPO”, the “GEmM colony formation potential, replacement of TPO” value [10] was “can completely replace TPO” and the “growth rate (total cells and CD34+ cells) relative to start of culture” value [5] was “no increase in the cell count”.
With `O=C(Nc1nc(-c2cc(Cl)cs2)c(N2CCN(C3CCCCC3)CC2)s1)c1cnc(N2CCC(C(=O)O)CC2)c(Cl)c1` [avatrombopag] the “proliferation in the absence of TPO” value [8] was “able to support proliferation” and the “cell proliferative effect in the absence of TPO” value [8] was “small”.
